In PMC3731522, “Arginase II inhibitory activity of flavonoid compounds from Scutellaria indica” (Archives of Pharmacal Research, 2013):

Biological target: T1, Arginase II (Mus musculus, UniProt O08691)
T1 construct: Tissue lysates of kidney were prepared using lysis buffer; from tissue; host or cells: kidney of C57BL/6 mice
T1 sequence (O08691 23-354): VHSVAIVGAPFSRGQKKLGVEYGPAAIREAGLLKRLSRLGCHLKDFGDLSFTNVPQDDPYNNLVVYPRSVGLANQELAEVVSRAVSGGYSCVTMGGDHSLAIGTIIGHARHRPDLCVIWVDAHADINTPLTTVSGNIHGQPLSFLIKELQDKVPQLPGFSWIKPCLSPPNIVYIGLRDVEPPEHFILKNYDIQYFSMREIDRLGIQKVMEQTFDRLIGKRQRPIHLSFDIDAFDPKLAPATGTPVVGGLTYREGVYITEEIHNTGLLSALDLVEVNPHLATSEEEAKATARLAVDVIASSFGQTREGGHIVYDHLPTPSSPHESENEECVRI
Experiment: Arginase II inhibitory activity, enzyme solution from mouse kidney lysate, urea determined at 550 nm
Assay type: biochemical
Conditions: kidney lysates of C57BL/6 mice; 50 % inhibition relative to vehicle control; average of three repeated experiments
Protocol: Arginase II solution was prepared from kidney lysates of anesthetized C57BL/6 mice (White et al. [2006]). Tissue lysates of kidney were prepared using lysis buffer (50 mM Tris–HCl, pH7.5, 0.1 mM EDTA and protease inhibitors) by homogenization at 4 °C followed by centrifugation for 20 min at 14,000×g at 4 °C. Briefly, […] lysates were added to Tris–HCl. The hydrolysis reaction of L-arginine by Arg was performed by incubating the mixture containing activated Arg and was stopped by adding acid solution. For calorimetric determination of urea, α-isonitrosopropiophenone was added, and the mixture was heated at 100 °C for 45 min. After placing the sample in the dark for 10 min at room temperature, the urea concentration was determined spectrophotometrically by the absorbance at 550 nm (White et al. [2006]).

Point of comparison: `COc1cc(O)c2c(c1OC)O[C@H](c1cc(O)ccc1O)CC2=O` [Compound 5, (2S)-5,2′,5′-trihydroxy-7,8-dimethoxyflavanone], IC50 11.6 ± 1.2 µM. Against it:
- COc1ccc([C@H]2C[C@H](OC)c3c(OC)c(OC)c(OC)c(OC)c3O2)cc1 [Compound 1, (2R,4S)-4,5,6,7,8,4′-hexamethoxylflavan] — higher, > 200 µM
- COc1c(O)cc(O)c2c(=O)cc(-c3ccccc3)oc12 [Compound 2, wogonin] — higher, > 200 µM
- COc1ccccc1[C@@H]1CC(=O)c2c(O)cc(O)c(OC)c2O1 [Compound 3, (2S)-5,7-dihydroxy-8,2′-dimethoxyflavanone] — 2.2-fold higher, 25.1 ± 2.6 µM
- O=c1cc(-c2ccc(O)cc2)oc2cc(O)cc(O)c12 [Compound 4, apigenin] — higher, > 200 µM
- O=C1C[C@@H](c2ccc(O)cc2)Oc2cc(O)cc(O)c21 [Compound 6, naringenin] — higher, > 200 µM
- O=C1C[C@@H](c2ccc(O)cc2)Oc2cc(O)cc(O[C@@H]3O[C@H](CO)[C@@H](O)[C@H](O)[C@H]3O)c21 [Compound 7, naringenin-5-O-β-D-glucopyranoside] — higher, > 200 µM
- COc1cc(O)c2c(c1OC)OC(c1cc(O)ccc1OC1OC(CO)C(O)C(O)C1O)CC2=O [Compound 8, (2S)-5,5′-dihydroxy-7,8-dimethoxyflavanone-2′-O-β-D-glucopyranoside] — higher, > 200 µM
- OC[C@H]1O[C@@H](Oc2cc(/C=C/c3cc(O)cc(O)c3)ccc2O)[C@H](O)[C@@H](O)[C@@H]1O [PG, piceatannol-3′-O-β-D-glucopyranoside, reference compound] — 12-fold lower, 1 ± 0.1 µM

Tested on: not given
Experiment: not given
Conditions: not given

With `COc1ccc([C@H]2C[C@H](OC)c3c(OC)c(OC)c(OC)c(OC)c3O2)cc1` [Compound 1, (2R,4S)-4,5,6,7,8,4′-hexamethoxylflavan] the melting point was 218 to 220 °C.
